Patent US20220227735A1, “THERAPEUTIC METHODS AND COMPOUNDS” (RUTGERS, THE STATE UNIVERSITY OF NEW JERSEY, priority 2019, published 2022)

What was measured:
[1] = molecular target: T1, Plasmodium falciparum PKG (PfPKG) (Plasmodium falciparum, UniProt Q8I719); assay: PfPKG IMAP fluorescence polarization kinase assay; type: biochemical; details: recombinant PfPKG, 10 uM ATP, 1 uM cGMP, FAM-PKAtide substrate; read-out: PfPKG (μm)
T1 construct: Full length PfPKG was cloned into the pTrcHisC vector for expression in BL21 (DE3) Star cells; His tag (pTrcHisC vector) (N); made in house; host or cells: E. coli BL21 (DE3) Star
Description: Full length PfPKG was cloned into the pTrcHisC vector for expression in BL21 (DE3) Star cells. An LB culture containing 50 ug/ml carbenicillin (250 mL) was grown overnight at 37° C. The following day the culture was cooled on ice for about 10-15 minutes and divided equally into two new 125 mL cultures. 125 ml of fresh LB broth containing carbenicillin was added to each flask bringing the volume of each flask to 250 ml. Cultures were shaken at 18° C. before induction with IPTG (1.0 mM) for 18-24 h. The bacterial pellet was frozen at −80° C. until protein purification. Cells were lysed with Bacterial Protein Extraction Reagent (Thermo Scientific) on ice for 10-15 min. Supernatant was obtained after centrifugation of lysate at 21,000×g for 15 min at 4° C. Supernatant was incubated for 30 minutes at 4° C. with rotation with HisPur Cobalt Resin (Thermo Scientific), pre-washed with Wash Buffer (50 mM Hepes pH 7.8, 120 mM KCl, 20 mM NaCl, 10 mM Imidazole). Resin was added to a gravity column that was allowed to empty through gravity flow. The resin was washed with Wash buffer until no more protein is eluted off the column as determined by Bradford assay. A second wash was performed with Wash buffer containing 300 mM NaCl as in the previous wash step. Bound protein was eluted in 50 mM Hepes pH 7.8, 120 mM KCl, 20 mM NaCl, 250 mM Imidazole. Protein was dialyzed overnight in 50 mM Hepes pH 7.8, 120 mM KCl, 20 mM NaCl and 10% glycerol, with two buffer exchanges. Dialyzed protein was concentrated in a Corning Spin-X concentrator and assayed for activity using the IMAP FP Progressive Screening Expression kit (Molecular Devices, catalog #R8127) following the manufacturer's protocol.
(§1) Plasmodium falciparum PKG (PfPKG) and human PKG (hPKG) kinase activity was assayed using a commercial immobilized metal ion affinity-based fluorescence polarization (IMAP) assay according to the manufactures protocol (Molecular Devices). Briefly, kinase assays (20 μl in black half volume 96 well microtiter plates) contained; 10 mM Tris-HCl, pH 7.2, 10 mM MgCl2, 0.05% NaN3, 0.01% Tween® 20, 10 uM ATP, 1 uM cGMP and 21 ng of recombinant enzyme per well. Compounds were preincubated with enzyme at 25° C. for 15 minutes and reactions were initiated with addition of 120 nM fluorescent peptide substrates, FAM-PKAtide for PfPKG and FAM-IP3R for hPKG (Molecular Devices). Fluorescent polarization was measured using a Synergy 2 Microplate reader (BioTek, Winooski, Vt.). Fluorescent polarization was read in parallel and perpendicular with an excitation wavelength of 485 nm and an emission wavelength of 528 nm. IC50 data were analyzed using a four parameter logistic curve fit using Microsoft Excel Solver.

[2] = test system: human PKG (hPKG); assay: Human PKG IMAP fluorescence polarization kinase assay; type: biochemical; details: compound at 10 μm; recombinant hPKG, 10 uM ATP, 1 uM cGMP, FAM-IP3R substrate
Source text: Human PKG, cloned into a pENTR221 vector, was obtained from DNASU.org. (HsCD00351766). It was cloned into a mammalian expression plasmid, Gateway pDEST27 (Invitrogen) for expression as a GST fusion protein, using LR Clonase II Plus enzyme (Invitrogen). The hPKG-pDEST27 plasmid was amplified in DH5a Max Efficiency Competent Cells and purified with a PureYield Plasmid Midiprep System (Promega) following the manufactures protocol. Expi293 cells were transfected with hPKG-pDEST27 using the Expifectamine 293 Transfection Kit (Gibco). After 18 hours, enhancing reagent (Gibco) was added. Cells were then collected 48 hours post-enhancing, centrifuged at 2000×g for 10 min, washed in ice cold PBS and frozen as a pellet at −80° C. until protein purification. The cell pellet was lysed with Mammalian Protein Extraction Reagent (Thermo Fisher) for 10-15 minutes. The lysate was centrifuged at 21,000×g for 15 minutes at 4° C. The supernatant was incubated for 1 h at 4° C. with glutathione resin that was pre-washed 10 times with ice cold Wash Buffer (50 mM Hepes pH 7.8, 120 mM KCl, 20 mM NaCl, 10% glycerol). The resin was loaded onto a column and washed with resin wash buffer by gravity flow until no more protein was detectable in the washes by Bradford assay. Protein was eluted with 10 mg/ml glutathione in Wash buffer. The protein was concentrated using a 30K MWCO Corning Spin X concentrator and assayed for activity as described above.
as §1

T1 sequence (Q8I719 whole entry): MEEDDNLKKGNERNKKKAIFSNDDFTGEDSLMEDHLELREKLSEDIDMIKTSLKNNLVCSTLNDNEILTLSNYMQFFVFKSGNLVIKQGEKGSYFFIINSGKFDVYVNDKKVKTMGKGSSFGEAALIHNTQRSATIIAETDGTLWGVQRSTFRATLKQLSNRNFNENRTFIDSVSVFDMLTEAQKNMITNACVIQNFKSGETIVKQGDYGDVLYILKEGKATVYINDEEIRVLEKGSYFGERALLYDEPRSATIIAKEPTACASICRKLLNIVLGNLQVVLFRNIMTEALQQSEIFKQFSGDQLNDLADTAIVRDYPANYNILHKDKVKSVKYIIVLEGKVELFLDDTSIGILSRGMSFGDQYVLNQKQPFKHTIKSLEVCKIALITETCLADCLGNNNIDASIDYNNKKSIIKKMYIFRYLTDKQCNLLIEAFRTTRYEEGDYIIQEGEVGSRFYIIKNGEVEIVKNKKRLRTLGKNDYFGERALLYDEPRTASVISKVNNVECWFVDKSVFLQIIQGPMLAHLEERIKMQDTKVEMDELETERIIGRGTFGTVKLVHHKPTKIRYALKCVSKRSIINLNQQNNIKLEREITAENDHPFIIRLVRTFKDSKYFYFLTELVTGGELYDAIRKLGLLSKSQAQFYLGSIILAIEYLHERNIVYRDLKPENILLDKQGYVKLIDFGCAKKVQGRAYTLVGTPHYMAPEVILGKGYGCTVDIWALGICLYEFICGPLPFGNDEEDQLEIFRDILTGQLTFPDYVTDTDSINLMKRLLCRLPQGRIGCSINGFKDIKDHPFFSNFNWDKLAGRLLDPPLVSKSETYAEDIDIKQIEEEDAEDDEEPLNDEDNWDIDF

| SMILES | IC50 [1] [nM] | Human PKG (10 μm) [2] |
| --- | --- | --- |
| CN1CCC(c2cc(-c3ccncc3)c(-c3ccc(F)cc3)n2C)CC1 [Example 14, 4-(2-(4-fluorophenyl)-1-methyl-5-(1-methylpiperidin-4-yl)-1H-pyrrol-3-yl)pyridine] | < 1000 | 14 |
| CN1CCc2c(ccc3c(-c4ccncc4)c(-c4ccc(F)cc4)[nH]c23)C1 [Example 11, 2-(4-fluorophenyl)-7-methyl-3-(pyridin-4-yl)-6,7,8,9-tetrahydro-1H-pyrrolo[2,3-f]isoquinoline] | < 1000 | 35 |
| CN1C[C@@H]2C(c3cc(-c4ccncc4)c(-c4ccc(F)cc4)[nH]3)[C@@H]2C1 (stereo partly drawn) [Example 26, (1R,5S)-6-(5-(4-fluorophenyl)-4-(pyridin-4-yl)-1H-pyrrol-2-yl)-3-methyl-3-azabicyclo[3.1.0]hexane] | < 1000 | 7 |
| C[C@H]1C[C@@H](c2cc(-c3ccncc3)c(-c3ccc(F)cc3)[nH]2)CCN1C (single isomer, unassigned) [Example 29, 4-(5-(cis-1,2-dimethylpiperidin-4-yl)-2-(4-fluorophenyl)-1H-pyrrol-3-yl)pyridine] | < 1000 | 26 |

Now from value to compound:

| IC50 [1] [nM] | Human PKG (10 μm) [2] | SMILES |
| --- | --- | --- |
| < 1000 | −2 | CN1CCC(c2cc(-c3ccncc3C(N)=O)c(-c3ccc(F)cc3)[nH]2)CC1 [Example 13, 4-(2-(4-fluorophenyl)-5-(1-methylpiperidin-4-yl)-1H-pyrrol-3-yl)nicotinamide] |
| < 1000 | 48 | CN1CCC(c2cc(-c3ccnc(N)c3)c(-c3ccc(F)cc3)[nH]2)CC1 [Example 7, 4-(2-(4-fluorophenyl)-5-(1-methylpiperidin-4-yl)-1H-pyrrol-3-yl)pyridin-2-amine] |
| < 1000 | 17 | CN1CCC(c2[nH]c(-c3ccc(F)cc3)c(-c3ccncc3)c2CS(C)(=O)=O)CC1 [Example 25, 4-(2-(4-fluorophenyl)-5-(1-methylpiperidin-4-yl)-4-((methylsulfonyl)methyl)-1H-pyrrol-3-yl)pyridine] |
| < 1000 | 9 | CN1CCC(c2cc(-c3ccncc3)c(-c3ccc(C(F)(F)F)cc3)[nH]2)CC1 [Example 33, 4-(5-(1-methylpiperidin-4-yl)-2-(4-(trifluoromethyl)phenyl)-1H-pyrrol-3-yl)pyridine] |
| < 1000 | −3 | CN(C)Cc1c(C2CCN(C)CC2)[nH]c(-c2ccc(F)cc2)c1-c1ccncc1 [Example 22, 1-(5-(4-fluorophenyl)-2-(1-methylpiperidin-4-yl)-4-(pyridin-4-yl)-1H-pyrrol-3-yl)-N,N-dimethylmethanamine] |
| < 1000 | 52 | CN1CCC(c2[nH]c(-c3ccc(F)cc3)c(-c3ccncc3)c2Br)CC1 [Example 15, 4-(4-bromo-2-(4-fluorophenyl)-5-(1-methylpiperidin-4-yl)-1H-pyrrol-3-yl)pyridine] |
